Each structure is given as a SMILES string.

Results on 34 compounds are retold here after the RepoRT retention time repository.

The nature of the data set: RP, Waters ACQUITY Premier BEH C18, 100 × 2.1 mm, 1.7 µm, 40 °C, 0.3 to 0.4 mL/min, estimated dead time 0.73 min; A: water + 0.1% formic acid; B: acetonitrile + 0.1% formic acid; gradient (min/%B) 0/0.5 0.1/0.5 10/80 10.1/99.5 12/0.5 12.1/0.5 14.5/0.5. To be noted: stereoisomer not certain.
In the case of `CC(C)CC1NC(=O)C2CCCN2C1=O` [L,L-CYCLO(LEUCYLPROLYL)], the LC retention time was 4.92 min.

In the case of `NC(N)=NCCCC(=O)O` [4-GUANIDINOBUTANOATE], the LC retention time is 1.35 min.

For the compound `O=C(O)CCCCCCCCCCCCCCCO` [16-HYDROXY HEXADECANOIC ACID], the LC retention time was 7.82 min.

Regarding `O=c1[nH]cnc2nc[nH]c12` [HYPOXANTHINE], the LC retention time was 1.76 min.

Turning to `Nc1nc2ncc(CNc3ccc(C(=O)NC(CCC(=O)O)C(=O)O)cc3)nc2c(=O)[nH]1` (centres undefined) [FOLATE], the LC retention time was 4.02 min.

Take `CC(CCC(=O)O)C(=O)O` (centres undefined) [2-METHYLGLUTARATE]: the LC retention time is 4.07 min.

In the case of `CC1CCC2(C(=O)O)CCC3(C)C(=CCC4C5(C)CC(O)C(O)C(C)(CO)C5C(O)CC43C)C2C1C` (stereo not drawn) [6BETA-HYDROXYASIATIC ACID], the LC retention time was 7.04 min.

With `O=C(O)CC(=O)O` [MALONATE], the LC retention time was 1.21 min.

`Cc1cc(O)c2c(c1)C(=O)c1cc(O)cc(O)c1C2=O` [EMODIN]: the LC retention time was 7.52 min.

Take `CC1OC(OCC2OC(Oc3cc(O)c4c(c3)OC(c3ccc(O)cc3)CC4=O)C(O)C(O)C2O)C(O)C(O)C1O` (centres undefined) [NARIRUTIN]: the LC retention time was 4.59 min.

Take `O=C(O)Cc1c[nH]c2ccccc12` [INDOLEACETIC ACID]: the LC retention time is 5.72 min.

As for `COC(=O)c1ccc(O)cc1` [METHYLPARABEN], the LC retention time was 5.79 min.

Take `O=CC(O)C(O)C(O)C(O)CO` (stereo not drawn) [ISTD_ D(+)-GLUCOSE-13C6]: the LC retention time is 0.888 min.

For the compound `CC(C)C(=O)O` [ISOBUTYRATE], the LC retention time is 3.67 min.

As for `Nc1ncnc2c1ncn2C1OC(COP(=O)(O)OP(=O)(O)OC2OC(CO)C(O)C(O)C2O)C(O)C1O` (centres undefined) [ADP-GLUCOSE], the LC retention time was 1.16 min.

Take `N#CC(OC1OC(COC2OC(CO)C(O)C(O)C2O)C(O)C(O)C1O)c1ccccc1` (centres undefined) [AMYGDALIN]: the LC retention time was 3.78 min.

In the case of `CCCCCCCC(=O)OC(CC(=O)[O-])C[N+](C)(C)C` [L-OCTANOYLCARNITINE], the LC retention time was 5.76 min.

Turning to `Nc1nc2[nH]c(=O)cnc2c(=O)[nH]1` [ISOXANTHOPTERIN], the LC retention time was 1.02 min.

As for `NC(=O)[C@@H](N)Cc1c[nH]c2ccccc12` [L-TRYPTOPHANAMIDE], the LC retention time was 3.9 min.

For `O=C(O)C(O)CCO` (centres undefined) [2,4-DIHYDROXYBUTANOIC ACID], the LC retention time was 1.07 min.

Take `COc1c(O)cc2oc3cc(O)c(CC=C(C)C)c(O)c3c(=O)c2c1CC=C(C)C` [ALPHA-MANGOSTIN]: the LC retention time was 8.32 min.

`O=C(O)c1cccc(O)c1` [3-HYDROXYBENZOATE]: the LC retention time is 4.72 min.

In the case of `CCNC(=O)CC[C@H](N)C(=O)O` [L-THEANINE], the LC retention time is 0.897 min.

In the case of `O=C(O)CCCCCCCCCCCNC(=O)NC1CCCCC1` [CUDA], the LC retention time is 7.47 min.

As for `O=C(O)C=Cc1cccc(O)c1` [M-COUMARIC ACID], the LC retention time was 4.77 min.

`OCCc1c[nH]c2ccccc12` [INDOLE-3-ETHANOL]: the LC retention time was 5.81 min.

With `COc1cc(C(=O)O)cc(OC)c1O` [SYRINGIC ACID], the LC retention time is 3.98 min.

For the compound `CS(=O)CCCN=C=S` (centres undefined) [3-METHYLSULFINYLPROPYL ISOTHIOCYANATE], the LC retention time is 4.1 min.

Consider `O=[N+]([O-])c1ccc(O)cc1O` [2,4-DIHYDROXY-NITROPHENOL], for which the LC retention time was 6.02 min.

Take `CC(=O)NC(C)C(=O)O` (centres undefined) [N-ACETYLALANINE]: the LC retention time was 2.4 min.

For the compound `CCC(=O)OC(CC(=O)[O-])C[N+](C)(C)C` (centres undefined) [PROPIONYLCARNITINE], the LC retention time is 0.894 min.

As to `O=C(O)C1(O)CC(O)C(O)C(O)C1` (centres undefined) [QUINATE], the LC retention time was 0.92 min.

Turning to `CC(C)c1cc2c(c(O)c1O)C1(C(=O)O)CCCC(C)(C)C1CC2` (centres undefined) [CARNOSIC ACID], the LC retention time was 8.06 min.

For `CCCCCCCCCCCCCCCCCC(=O)O` [STEARATE], the LC retention time is 11 min.
